Reference: ChEMBL document CHEMBL5244211, “Current anti-diabetic agents and their molecular targets: A review” (Eur J Med Chem, 2018)

Tests used:
[1] = molecular target: T1, Fructose-1,6-bisphosphatase 1 (Homo sapiens, UniProt P09467); test: Inhibition of FBPase (unknown origin)
T1 sequence (P09467 whole entry): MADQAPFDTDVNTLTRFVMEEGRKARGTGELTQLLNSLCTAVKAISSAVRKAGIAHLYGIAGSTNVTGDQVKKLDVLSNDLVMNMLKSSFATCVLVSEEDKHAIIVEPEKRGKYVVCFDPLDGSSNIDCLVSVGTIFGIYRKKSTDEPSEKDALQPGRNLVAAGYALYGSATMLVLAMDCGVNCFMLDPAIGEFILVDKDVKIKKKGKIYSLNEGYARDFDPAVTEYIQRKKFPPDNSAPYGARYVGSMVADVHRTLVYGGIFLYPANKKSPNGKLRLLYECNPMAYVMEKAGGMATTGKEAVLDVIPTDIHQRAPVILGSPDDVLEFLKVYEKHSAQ

[2] = molecular target: T2, Tyrosine-protein phosphatase non-receptor type 1 (Homo sapiens, UniProt P18031); test: Inhibition of PTP1B (unknown origin)
T2 sequence (P18031 whole entry): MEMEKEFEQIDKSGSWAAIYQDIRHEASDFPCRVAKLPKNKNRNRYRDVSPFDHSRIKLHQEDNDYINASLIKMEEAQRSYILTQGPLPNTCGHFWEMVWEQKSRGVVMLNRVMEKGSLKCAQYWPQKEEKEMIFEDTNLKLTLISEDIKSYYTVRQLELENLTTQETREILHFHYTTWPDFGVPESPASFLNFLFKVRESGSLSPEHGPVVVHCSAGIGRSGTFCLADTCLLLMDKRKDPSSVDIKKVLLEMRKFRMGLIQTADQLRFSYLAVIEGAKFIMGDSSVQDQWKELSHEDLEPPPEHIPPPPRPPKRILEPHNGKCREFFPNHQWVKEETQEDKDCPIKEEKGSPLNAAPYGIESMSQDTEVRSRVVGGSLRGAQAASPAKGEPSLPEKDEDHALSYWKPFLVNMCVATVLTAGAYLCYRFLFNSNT

[3] = molecular target: T3, Free fatty acid receptor 4 (Mus musculus) (UniProt Q7TMA4); test: In vivo agonist activity at GPR120 in C57BL/6 mouse assessed as reduction in glucose AUC levels at 30 mg/kg,po and measured upto 120 mins by OGTT test; assay type: functional, organism-based; parameters: scale not given: the % may be the effect or the level left
T3 sequence (whole entry): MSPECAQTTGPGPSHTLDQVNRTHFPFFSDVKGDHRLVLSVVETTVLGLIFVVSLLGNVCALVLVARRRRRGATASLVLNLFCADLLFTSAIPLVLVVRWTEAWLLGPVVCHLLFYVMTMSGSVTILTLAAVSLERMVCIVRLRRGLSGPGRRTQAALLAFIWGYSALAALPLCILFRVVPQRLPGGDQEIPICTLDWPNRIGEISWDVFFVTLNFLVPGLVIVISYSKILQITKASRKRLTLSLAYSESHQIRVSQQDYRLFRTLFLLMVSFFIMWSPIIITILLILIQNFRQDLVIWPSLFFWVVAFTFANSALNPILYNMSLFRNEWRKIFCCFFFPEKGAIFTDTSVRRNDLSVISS

[4] = molecular target: T4, Free fatty acid receptor 4 (Homo sapiens, UniProt Q5NUL3); test: Agonist activity at human GPR120 expressed in CHO cells assessed as intracellular phosphorylated ERK incubated for 16 to 18 hrs by AlphaScreen SureFire assay; assay type: cell-based
T4 sequence (Q5NUL3 whole entry): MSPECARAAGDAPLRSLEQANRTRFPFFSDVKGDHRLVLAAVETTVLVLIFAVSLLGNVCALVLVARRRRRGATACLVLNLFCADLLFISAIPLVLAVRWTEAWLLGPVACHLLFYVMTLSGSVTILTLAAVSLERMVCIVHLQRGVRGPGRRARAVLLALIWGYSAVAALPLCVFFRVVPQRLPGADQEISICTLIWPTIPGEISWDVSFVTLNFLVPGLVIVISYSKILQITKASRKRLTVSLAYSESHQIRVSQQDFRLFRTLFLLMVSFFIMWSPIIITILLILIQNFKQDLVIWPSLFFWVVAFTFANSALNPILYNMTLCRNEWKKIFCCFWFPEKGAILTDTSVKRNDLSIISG

[5] = Inhibition of calf lens ALR2 using glyceraldehyde as substrate incubated for 5 mins in presence of NADPH by UV-spectrophotometric analysis; assay type: tissue-based, Bos taurus
[6] = molecular target: T5, Dipeptidyl peptidase 4 (Homo sapiens, UniProt P27487); test: Inhibition of DPP4 (unknown origin)
T5 sequence (P27487 whole entry): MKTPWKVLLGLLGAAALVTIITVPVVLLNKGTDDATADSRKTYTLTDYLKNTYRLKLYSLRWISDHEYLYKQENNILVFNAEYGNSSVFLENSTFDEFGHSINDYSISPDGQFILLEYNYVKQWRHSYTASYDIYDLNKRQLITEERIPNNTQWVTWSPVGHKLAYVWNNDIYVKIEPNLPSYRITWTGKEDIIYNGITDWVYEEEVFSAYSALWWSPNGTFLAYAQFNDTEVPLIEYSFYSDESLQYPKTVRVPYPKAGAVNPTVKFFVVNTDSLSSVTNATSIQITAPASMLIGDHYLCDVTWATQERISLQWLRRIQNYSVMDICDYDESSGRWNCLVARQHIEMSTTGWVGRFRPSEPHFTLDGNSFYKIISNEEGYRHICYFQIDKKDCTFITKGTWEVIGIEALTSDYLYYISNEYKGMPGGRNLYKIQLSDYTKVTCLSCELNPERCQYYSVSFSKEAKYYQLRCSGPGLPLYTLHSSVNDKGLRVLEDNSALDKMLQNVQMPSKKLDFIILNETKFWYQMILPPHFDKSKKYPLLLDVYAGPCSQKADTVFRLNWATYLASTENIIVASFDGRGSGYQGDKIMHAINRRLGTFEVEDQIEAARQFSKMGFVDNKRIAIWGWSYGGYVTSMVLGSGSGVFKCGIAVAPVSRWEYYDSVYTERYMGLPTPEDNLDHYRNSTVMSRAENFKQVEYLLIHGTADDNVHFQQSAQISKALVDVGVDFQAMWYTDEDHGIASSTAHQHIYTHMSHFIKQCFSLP

[7] = molecular target: T6, Fructose-1,6-bisphosphatase 1 (Rattus norvegicus, UniProt P19112); test: Inhibition of FBPase in rat Primary hepatocyte assessed as reduction in glucose production; assay type: cell-based
T6 sequence (P19112 whole entry): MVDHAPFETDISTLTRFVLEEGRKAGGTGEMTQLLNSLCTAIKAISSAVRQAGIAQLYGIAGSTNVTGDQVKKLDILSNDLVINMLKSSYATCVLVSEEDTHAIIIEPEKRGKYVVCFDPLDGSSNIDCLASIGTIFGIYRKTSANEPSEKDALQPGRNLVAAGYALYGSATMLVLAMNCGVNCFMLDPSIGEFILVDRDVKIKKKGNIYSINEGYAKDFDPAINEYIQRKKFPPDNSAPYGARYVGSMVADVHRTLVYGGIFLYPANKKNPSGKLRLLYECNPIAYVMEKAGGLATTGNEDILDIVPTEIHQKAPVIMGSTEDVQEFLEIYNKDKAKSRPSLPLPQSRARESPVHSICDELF

[8] = molecular target: T7, Fructose-1,6-bisphosphatase 1 (Rattus norvegicus) (UniProt P19112); test: Inhibition of FBPase in rat Primary hepatocyte assessed as reduction in glucose production at 160 uM; assay type: cell-based
T7 sequence (whole entry): T6 sequence (P19112 whole entry)

[9] = molecular target: T2, Tyrosine-protein phosphatase non-receptor type 1; test: Inhibition of human GST-tagged PTP1B expressed in Escherichia coli using pNPP as substrate by spectroscopic analysis
[10] = molecular target: T8, Alpha-glucosidase (Saccharomyces cerevisiae S288c) (UniProt P53341+P38158+P07265); test: Inhibition of Saccharomyces cerevisiae alpha-glucosidase assessed as dissociation rate constant (k2) using p-nitrophenol-alpha-D-glucopyranoside as substrate by Lineweaver-Burk plot analysis; assay type: protein assay
[11] = molecular target: Alpha-glucosidase (Saccharomyces cerevisiae S288c, UniProt P53341+P38158+P07265); test: Inhibition of Saccharomyces cerevisiae alpha-glucosidase using p-nitrophenol-alpha-D-glucopyranoside as substrate incubated for 15 mins by spectrophotometric method; assay type: protein assay
[12] = molecular target: T8, Alpha-glucosidase (Saccharomyces cerevisiae S288c); test: Inhibition of Saccharomyces cerevisiae alpha-glucosidase assessed as dissociation rate constant (k1) using p-nitrophenol-alpha-D-glucopyranoside as substrate by Lineweaver-Burk plot analysis; assay type: protein assay
[13] = molecular target: T5, Dipeptidyl peptidase 4; test: Inhibition of DPP4 (unknown origin) using Gly-Pro-AMC as substrate incubated for 20 mins by spectroscopic analysis
[14] = molecular target: T5, Dipeptidyl peptidase 4; test: Inhibition of human recombinant DPP4 using H-Gly-Pro-AMC as substrate incubated for 10 mins by microplate reader analysis
[15] = molecular target: T9, Tyrosine-protein phosphatase non-receptor type 2 (Homo sapiens, UniProt P17706); test: Inhibition of TC-PTP (unknown origin) using pNPP as substrate incubated for 5 mins by absorbance based analysis
T9 sequence (P17706 whole entry): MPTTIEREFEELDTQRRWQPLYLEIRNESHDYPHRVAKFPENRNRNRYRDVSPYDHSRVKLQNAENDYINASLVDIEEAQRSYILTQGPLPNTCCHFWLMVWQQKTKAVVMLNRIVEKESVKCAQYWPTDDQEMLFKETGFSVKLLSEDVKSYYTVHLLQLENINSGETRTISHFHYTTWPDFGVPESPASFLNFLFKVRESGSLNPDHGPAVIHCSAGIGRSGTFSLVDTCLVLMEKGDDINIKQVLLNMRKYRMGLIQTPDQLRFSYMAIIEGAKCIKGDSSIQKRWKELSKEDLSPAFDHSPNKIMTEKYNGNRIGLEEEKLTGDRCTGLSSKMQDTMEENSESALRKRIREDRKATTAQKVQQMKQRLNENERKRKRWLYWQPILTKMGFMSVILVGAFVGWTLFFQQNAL

[16] = organism: Homo sapiens; test: Selectivity ratio of IC50 for inhibition of PTP1B (unknown origin) to IC50 for inhibition of TC-PTP (unknown origin)

Cc1ccc(-c2nnc(-c3cccc(NC(=O)CCCCCCO)c3)o2)cc1
IC50 [1]: 1.32 µM

O=c1c2cc(O)c(O)cc2oc2cc(O)cc(O)c12
IC50 [2]: 9.2 µM

O=C(O)[C@H]1C[C@@H]1CCC12CCC(c3cccc(Oc4ccccc4)c3)(CC1)O2
Activity [3]: 60%
EC50 [4]: 0.22 µM

Cc1ccc(-c2nn(-c3ccccc3)cc2/C=C2\SC(=S)N(c3cccc(Br)c3)C2=O)cc1
IC50 [5]: 1.22 µM

CC#CCn1c(N2CCC[C@@H](N)C2)cc(=O)n(Cc2nc(C)c3cc(C)ccc3n2)c1=O
IC50 [6]: 0.00578 µM

Cc1ccc(N2C(=O)/C(=C/c3cn(-c4ccccc4)nc3-c3ccc([N+](=O)[O-])cc3)SC2=S)cc1
IC50 [5]: 2.34 µM

Cc1ccc(-c2nnc(-c3cccc(NC(=O)CCCCc4nnn[nH]4)c3)o2)cc1
IC50 [7]: 167 µM
inhibition [8]: 42%

COc1cc(C(=O)c2c(CBr)cc(OC)c(OC)c2Br)c(Br)c(Br)c1OC
IC50 [9]: 2.07 µM

Cc1cc2c(c(=O)[nH]1)C(=O)O/C2=C\c1cc(Br)cs1
Kdiss [10]: 0.25 µM
IC50 [11]: 0.24 µM
Kdiss [12]: 0.22 µM

CC#CCn1c(N2CCC[C@@H](N)C2)nc2c(C)c(=O)n(Cc3nc(C)c4c(F)cccc4n3)c(=O)n21
IC50 [6]: 0.0005 µM

O=C1NC(=O)[C@@]2(CCOc3ccc(F)cc32)N1 [SORBINIL]
IC50 [5]: 0.0031 µM

O=C(CNc1nc(Nc2ccc(S(=O)(=O)Nc3nccs3)cc2)nc(N2CCOCC2)n1)Nc1ccc(F)cc1
IC50 [13]: 0.00232 µM

Cc1cc(OCc2ccc(C(=O)O)cc2)ccc1/C=C1\SC(=S)N(Cc2ccc(C(=O)O)cc2)C1=O
IC50 [2]: 0.24 µM

NNc1nc(NN)nc(N2C(=O)CSC2=O)n1
IC50 [14]: 6.25 µM

O=C(c1cccc(CN2CCCN(Cc3cccc(C(=O)C(F)(F)P(=O)(O)O)c3)CCN(Cc3cccc(C(=O)C(F)(F)P(=O)(O)O)c3)CCCN(Cc3cccc(C(=O)C(F)(F)P(=O)(O)O)c3)CC2)c1)C(F)(F)P(=O)(O)O
IC50 [15]: 0.075 µM
Ratio IC50 [16]: 14
